Measured values: the supplement of paper PMC10307832

Experiments:
Experiment in all cases: relative viability (nuclei count vs DMSO), 5 days (fraction); higher = more cells survive
Trametinib + Luminespib = compound: CC(=O)Nc1cccc(-n2c(=O)n(C3CC3)c(=O)c3c(Nc4ccc(I)cc4F)n(C)c(=O)c(C)c32)c1 [Trametinib] + CCNC(=O)c1noc(-c2cc(C(C)C)c(O)cc2O)c1-c1ccc(CN2CCOCC2)cc1 [Luminespib] (partner 0.01 µM)
Outline: (§1)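 Lung cancer cell lines were pin-tool dosed in 1536-well plates on the day after seeding, with either a lone drug or a fixed anchor-drug dose plus five library-drug doses (not always all listed) in √10 steps. Nuclei were counted on 4× images after 5 days. Relative viability is the ratio of treated-well to vehicle-well nuclei counts, with each value a median of duplicate plates.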

[1] = compound: CN1C=C(C2=CC=CC=C21)/C=C\3/C4=C(C=CC=N4)NC3=O + Cc1nc(NC(=O)N2CCC[C@H]2C(N)=O)sc1-c1ccnc(C(C)(C)C(F)(F)F)c1 [Alpelisib] (partner 2 µM)
Outline: as §1

[2] = compound: CN1C=C(C2=CC=CC=C21)/C=C\3/C4=C(C=CC=N4)NC3=O + Cc1nc(Nc2ncc(C(=O)Nc3c(C)cccc3Cl)s2)cc(N2CCN(CCO)CC2)n1 [Dasatinib] (partner 0.075 µM)
Outline: as §1

[3] = compound: CN1C=C(C2=CC=CC=C21)/C=C\3/C4=C(C=CC=N4)NC3=O + Cc1cc(Nc2cc(N3CCN(C)CC3)nc(Sc3ccc(NC(=O)C4CC4)cc3)n2)n[nH]1 [Tozasertib] (partner 0.1 µM)
Outline: as §1

Question: How did the relative viability (Trametinib + Luminespib; first compound 0.0025 µM) turn out when UMC-11 was run?
Answer: Its relative viability is 1.05.

Question: What about the relative viability (Trametinib + Luminespib; first compound 0.007906 µM) of the same cell line?
Answer: Its relative viability is 1.08.

Question: What about the relative viability (Trametinib + Luminespib; first compound 0.025 µM) of the same cell line?
Answer: The relative viability was 0.951.

Question: And the relative viability (Trametinib + Luminespib; first compound 0.07906 µM)?
Answer: Its relative viability is 1.04.

Question: And the relative viability (Trametinib + Luminespib; first compound 0.25 µM)?
Answer: The relative viability was 0.945.

Question: And the relative viability ([1]; first compound 0.02 µM)?
Answer: Its relative viability is 0.725.

Question: What about the relative viability ([1]; first compound 0.06325 µM) of the same cell line?
Answer: The relative viability was 1.02.

Question: What about the relative viability ([1]; first compound 0.2 µM) of the same cell line?
Answer: The relative viability was 1.01.

Question: And the relative viability ([1]; first compound 0.6325 µM)?
Answer: The relative viability was 1.05.

Question: What about the relative viability ([1]; first compound 2 µM) of the same cell line?
Answer: The relative viability was 1.12.

Question: What about the relative viability ([2]; first compound 0.02 µM) of the same cell line?
Answer: The relative viability was 0.556.

Question: What about the relative viability ([2]; first compound 0.06325 µM) of the same cell line?
Answer: Its relative viability is 0.449.

Question: What about the relative viability ([2]; first compound 0.2 µM) of the same cell line?
Answer: Its relative viability is 0.367.

Question: And the relative viability ([2]; first compound 0.6325 µM)?
Answer: Its relative viability is 0.41.

Question: And the relative viability ([2]; first compound 2 µM)?
Answer: Its relative viability is 0.632.

Question: And the relative viability ([3]; first compound 0.02 µM)?
Answer: Its relative viability is 0.206.

Question: What about the relative viability ([3]; first compound 0.06325 µM) of the same cell line?
Answer: Its relative viability is 0.198.

Question: And the relative viability ([3]; first compound 0.2 µM)?
Answer: Its relative viability is 0.177.

Question: And the relative viability ([3]; first compound 0.6325 µM)?
Answer: Its relative viability is 0.191.

Question: What about the relative viability ([3]; first compound 2 µM) of the same cell line?
Answer: The relative viability was 0.227.
